According to US20110160279A1, “METHODS FOR TREATMENT AND PREVENTION OF OTOTOXICITY BY siRNA” (BOARD OF TRUSTEES OF SOUTHERN ILLINOIS UNIVERSITY, priority 2007, published 2011):

How the values were obtained:
TRPV1 protein = assay: Western blot of TRPV1 protein in whole cochlear lysates; format: in vivo, rat; details: 72 h following cisplatin
From the text: Cochleae were homogenized in ice-cold TRIS 50:10:100. The whole tissue lysate was then used for Western blotting. After transfer to nitrocellulose membrane TRPV1 protein was visualized by chemiluminesence detection (ECL, Amersham, Piscataway, N.J.).

UB-OC1 cells = assay: Cisplatin-induced ROS generation by DCF2DA fluorescence in UB-OC1 cells; format: cell-based, mouse; details: cisplatin 2.5 μM, 30 minute
TRPV1 mRNA = assay: Real time RT-PCR of TRPV1 mRNA in rat cochlea; format: in vivo; details: rat cochlea
Experimental: Animal procedures and sample collection: Male Wistar rats were used for this study. Pre-ABR's were performed 2-3 days before round window application of siTRPV1 or PBS. […] The cochleas were dissected and used for the preparation of total RNA or total protein extracts, or perfused with 2.5% glutaraldehyde for morphological studies by Scanning Electron Microscopy (SEM's) or 4% paraformaldehyde for immunocytochemistry.
(§1) RNA was isolated by adding 1 ml TR1 reagent to 100 mg of cochlear or cortical tissue or 0.5 ml TR1 reagent (Sigma, St. Louis, Mo.) per well of each six well plate, according to the manufacturer's instructions.
(§2) Real time reverse transcriptase polymerase chain reaction (RT-PCR): One microgram of total RNA was converted to cDNA using iScript cDNA Synthesis Kit (Bio-Rad, Hercules, Calif.), and qRTPCR was performed as described by (Mukherjea et al, 2006). Gene specific primer pairs were used for the various reactions and mRNA expression levels were normalized to the levels of GAPDH house keeping gene.
(§3) The rodent set of primers and siRNA were based on the homologous sequences in the rat and mouse cDNA sequences. The primers were purchased from Sigma Genosys (St. Louis, Mo.). Purified siRNA duplexes were purchased from Qiagen (Valencia, Calif.).

gp91 [1] = assay: Real time RT-PCR of gp91 transcript in rat cochlea; format: in vivo; details: cisplatin (data not shown)
Experimental: as §1, §2
(§4) The rodent set of primers and siRNA were based on the homologous sequences in the rat and mouse cDNA sequences. The primers were purchased from Sigma Genosys (St. Louis, Mo.). Purified siRNA duplexes were purchased from Qiagen (Valencia, Calif.). Primers were as follows: Rodent NOX3 (sense): 5′-[…]-3′ (SEQ ID NO: 9) (antisense): 5′-[…]-3′ (SEQ ID NO: 10), Rodent-GAPDH (sense): 5′-[…]-3′ (SEQ ID NO: 11) (antisense): 5′-[…]-3′ (SEQ ID NO: 12), Rodent TRPV1 (sense): 5′-[…]-3′ (SEQ ID NO: 13), (antisense): 5-[…]-3′ (SEQ ID NO: 14), Rodent Rac-1 (sense): 5′-[…]-3′ (SEQ ID NO: 15), (antisense): 5′-[…]-3′ (SEQ ID NO: 16), Rodent gp-91 (sense) 5′-[…]-3′ (SEQ ID NO: 17), (antisense): 5′-[…]-3′ (SEQ ID NO: 18), and Rat p22 (sense): 5′-[…]-3′ (SEQ ID NO: 19), (antisense) 5′-[…]-3′ (SEQ ID NO: 20) […]

Bax = Bax protein expression in UB/OC-1 cells; format: cell-based, mouse; details: cisplatin, 24 hr
Experimental: (§5) The increases in these proteins were attenuated by capsazepine (10 μM), implicating TRPV1 in this process.

Rac1 = assay: Real time RT-PCR of Rac1 transcript in rat cochlea; format: in vivo; details: cisplatin (data not shown)
Experimental: as §1, §2, §4

NOX3 mRNA = assay: Real time RT-PCR of NOX3 mRNA in UB/OC-1 cells; format: cell-based, mouse; details: cisplatin 2.5 μM
Experimental: (§6) Immortalized organ of Corti cells derived from the mouse, UB/OC-1 cells, were obtained from Dr. Matthew Holley (Institute of Molecular Physiology, Addison Building, Western Bank, Sheffield, UK) and cultured in RPMI 1640 supplemented with 10% Fetalclone II (Hyclone, Logan, Utah) serum and penicillin-streptomycin. Cultures were grown in a 33° C. incubator in 10% CO2.
as §1, §2, §3

gp91 [2] = assay: Real time RT-PCR of gp91 mRNA in UB/OC-1 cells; format: cell-based, mouse; details: cisplatin 2.5 μM
Experimental: as §6, §1, §2, §3

UB/OC-1 cells = assay: Intracellular Ca2+ with Fura4-AM in UB/OC-1 cells; format: cell-based, mouse; details: cisplatin
Experimental: as §5

TRPV1 = TRPV1 immunoreactivity in rat cochlea sections; format: in vivo; details: 72 h following cisplatin 13 mg/kg i.p.; confocal microscopy
Experimental: Cochleae perfused with 4% paraformaldehyde were processed for decalcification and sectioning as described in (Dunaway et al., 2003). TRPV1-1 antibody was diluted 1:100 and samples were incubated for 1 h at 37° C. incubator. Secondary antibody used was goat anti-rabbit IgG conjugated to horse radish peroxidase (Santa Cruz Biotechnology, Inc, Santa Cruz, Calif.) which was diluted 1:200. ABC staining system (Santa Cruz Biotechnology), which included a diaminobenzadine as a peroxidase substrate, was used for visualization of protein expression. Slides were imaged using Scion Imaging system (Frederick, Md.).
Rats were tested for hearing loss 72 h later using auditory brainstem evoked responses (ABRs). […] Cochleas obtained from these animals were decalcified, sectioned and processed for TRPV1 immunoreactivity using a polyclonal antibody (as described in Puntambekar et al., 2005). Visualization by confocal microscopy indicated TRPV1 immunoreactivity in the organ of Corti, supporting cells and spiral ganglion cells. […] The increases were 18±1 and 15±3 at 48 h and 72 h, respectively (FIG. 1C).

p22 = assay: Real time RT-PCR of p22 transcript in rat cochlea; format: in vivo; details: cisplatin (data not shown)
Experimental: as §1, §2, §4

outer hair cells = assay: Outer hair cell loss by scanning electron microscopy; format: in vivo, rat; details: cisplatin 16 mg/kg i.p., vehicle-pretreated cochlea, 3 days, N=3
Experimental: Immediately after completion of follow-up ABRs, deeply sedated rats were euthanized, their cochleae harvested and processed as described in (Kamimura et al, 1999). Sputter coated cochleae were then viewed and photographed with a Hitachi S-500 scanning electron microscope (Hitachi Ltd., Tokyo, Japan).
Hair cell counts were performed using a modified version of the method used by (Korver et al. 2002). Two representative areas of the basal turn and hook portion were photographed. In each area, inner or outer hair cells were counted in an area that was 10 pillar cell heads in length.
The results were shown, as the average survival percentage rates compared to the control group. Statistical analysis was performed using Student's t-test.
Five rats were administered either vehicle or TRPV1 siRNA (3 μl) by round window application. The rats served as their own controls since one cochlea was treated with vehicle and the other with siRNA.

N.N.[Cl][Pt][Cl] [cisplatin]
TRPV1 protein (~95 kDa band) in whole cochlear lysates (TRPV1 protein): increased TRPV1 protein | ROS generation by DCF2DA fluorescence (UB-OC1 cells): robust increase | increase in TRPV1 transcripts (TRPV1 mRNA; 24 h following cisplatin): 15±1 fold | increase in TRPV1 transcripts (TRPV1 mRNA; 48 h following cisplatin): 18±1 | increase in TRPV1 transcripts (TRPV1 mRNA; 72 h following cisplatin): 15±3 | level of induction of TRPV1 by cisplatin (TRPV1 mRNA; lipoic acid experiment (FIG. 1D), 72 hrs): 5.5±1.5 fold | increase in gp91 expression (gp91 [1]): 1000±102 fold | Bax protein (Bax): increases | increase in Rac1 expression (Rac1): 478±85 fold | increase in NOX3 mRNA (NOX3 mRNA): 2.7 fold | increase in gp91 mRNA (gp91 [2]): 2.8 fold | intracellular Ca2+ (UB/OC-1 cells): increased intracellular Ca2+ | elevation of TRPV1 immunoreactivity in hair cells and spiral ganglion cells (TRPV1): 2-3 fold | increase in p22 expression (p22): 8±1 fold | percentage of outer hair cell loss, base (outer hair cells): 42±9 percentage | percentage of outer hair cell loss, hook (outer hair cells): 72±14 percentage | percentage of outer hair cell loss, middle turn (outer hair cells): 22±2.7 percentage
